From patent US4925649A, “Radioiodinated diacylglycerol analogues and methods of use” (The University of Michigan, priority 1987, dated 1990)

Test system: intracellular PK-C
Test: [3H]PDBu binding to intact HL-60 cells
Type: cell-based, human
Details: 37° C., 30 minutes, FIG. 9, compared with naturally occurring diacylglycerol DiC8
Procedure: The diacylglycerol composition under investigation was stored in chloroform at -20° C. Prior to use, the diacylglycerol was dried under nitrogen and sonicated in RPMI-1640 growth media. HL-60 cells, derived from a human leukemia cell line, were cultured in RPMI-1640 growth media containing 10% horse serum. The cells were placed in fresh serum-containing growth media 24 hours prior to the experiment. Then, cells in log phase growth were placed in normal serum containing growth media with 20 mM HEPES buffer (pH 7.4) at a concentration of 5×10^6 cells/ml. The cells were incubated at 37° C. in 5% CO2 /air in the presence of [^3 H]PDBu and various concentrations of diacylglycerol.
Binding reactions were stopped after 30 minutes by filtering the cells over Whatman glass fiber GF/C filters and rinsing with cold phosphate buffered saline (pH 7.4). The filters were then dried and counted with a scintillation counter. Nonspecific binding was determined by adding 2 μM non-tritiated phorbol diester to parallel binding reactions. Specific [^3 H]PDBu binding was calculated by subtracting nonspecific [^3 H]PDBu from the total. All binding data are expressed in terms of specific binding. Specific binding typically represented 80% of the total.

CCCCCCCC(=O)OCC(CO)OC(=O)CCc1cccc(I)c1 (racemic) [OIPG, 1-octanoyl-2-[3-(m-iodophenyl)propanoyl]-rac-glycerol]
diacylglycerol inhibition of [3H]PDBu binding in intact HL-60 cells: capable of entering intact cells and binding to intracellular PK-C in a manner similar to a naturally occurring diacylglycerol
